Among the data in article PMC4580985, “Calcium ions open a selectivity filter gate during activation of the MthK potassium channel” (Nature Communications, 2015) are Kd values, retold here.

For the experiment, the target named is T1, MthK (Methanothermobacter thermautotrophicus, UniProt O27564).
T1 construct: MthK channel with pore and cytosolic gating ring (RCK), purified in decyl maltoside, Superdex 200, reconstituted in DOPC:POPG 3:1 liposomes
The experiment can be described thus: stopped-flow Tl+ flux (ANTS quench) in MthK liposomes, blocker equilibration time course. The conditions noted are these: read-out: KD^ap. In kind it is biochemical. The source says: stopped-flow Tl+ flux (ANTS quench) in MthK liposomes, blocker equilibration time course on MthK

In the case of `CCCC[N+](CCCC)(CCCC)Cc1ccc(C(=O)c2ccccc2)cc1` [bbTBA, N-(4-[benzoyl]benzyl)-N,N,N-tributylammonium], the dissociation constant (Kd) was found to be 700 ± 200 nM.
To `CCCC[N+](CCCC)(CCCC)Cc1ccc(Br)cc1` [Br-bTBA, 4-bromobenzyltributylammonium bromide] belongs 2600 ± 400 nM; to `CCCCC[N+](CCCCC)(CCCCC)CCCCC` [TPeA], 2100 ± 200 nM.
